Results as given in article PMC5267519, “Evaluation of a Novel Renewable Hepatic Cell Model for Prediction of Clinical CYP3A4 Induction Using a Correlation-Based Relative Induction Score Approach” (Drug Metabolism and Disposition, 2017).
Several values for one entry are separate records, joined by “and”; a condition that tells them apart may be missing. Equal entries are not always repeated. Where two headings read alike, the source gives them in different places.

What was measured:
CYP3A4 [1] = conditions: for RIS Based on Enzyme Activity: RIS = (Emax × Cmax,ub)/(EC50 + Cmax,ub); for RIS values based on enzyme activity (range stated for group of compounds): range over named compounds and three lots
CYP3A4 [2] = conditions: cited from earlier work
CYP3A4 [3] = conditions: for Predicted AUC change using HepatoCells (range of lots): three lots, mRNA or activity basis not given
Source text: The resulting fitting equation was used to calculate predicted in vivo AUC change for each compound. […] Prediction accuracy using HepatoCells was also compared with prediction accuracy using primary human hepatocytes.

CYP3A4 [4] = conditions: hepatocytes; cited from earlier work
CYP3A4 mRNA [5] = conditions: for RIS Based on mRNA, Mean: human
Method: (§1) Cryopreserved HepatoCells were thawed quickly in a 37°C water bath and transferred to Corning Culture Medium for HepatoCells supplemented with 10% fetal bovine serum and Pen/Strep (plating medium). After the cryo-freezing media was removed by centrifugation at 150g for 10 minutes, the cell pellet was resuspended in plating media and cell count was performed with trypan blue. Cells were then seeded in a Corning BioCoat Collagen I–coated plate (500,000 cells/well in 24-well plate or 80,000 cells/well in 96-well plate), and plates were incubated in a 37°C incubator with 5% CO2. […] Cells were then returned to the incubator for overnight culture.
(§2) Stock solutions of test compounds were prepared by dissolving each compound in DMSO and serially diluting the solutions in DMSO. Final working solutions were freshly prepared daily by diluting the 1000× stock solutions in culture medium. Three lots of HepatoCells culture were treated with eight concentrations of test compounds. Both enzymatic activity (testosterone 6β hydroxylase activity) and mRNA expression were measured as endpoints using LC-MS/MS and real-time reverse-transcription polymerase chain reaction, respectively.

MRP2 = target: T1, MRP2 (Homo sapiens, UniProt Q92887); assay: CDFDA staining of bile canaliculi in HepatoCells sandwich culture; assay type: cell-based; conditions: pretreatment with inhibitor
T1 construct: the functional efflux transporter MRP2 is expressed and localized at the apical surface of HepatoCells; host or cells: Corning HepatoCells, collagen/Matrigel sandwich culture
Method: On day 1, HepatoCells were plated on collagen-coated dishes. Four to six hours after seeding, cell monolayer was overlaid with Matrigel solution at 0.25 mg/mL (as described above). Daily medium change was performed from day 2 to day 4 using fresh Corning Culture Medium for HepatoCells. On day 5, the sandwich cultures were incubated with carboxy-dichlorofluorescein diacetate (CDFDA), a multidrug-resistant protein 2 (MRP2) substrate that is metabolized by cytosolic esterases. The fluorescent CDFDA metabolite accumulated in bile canalicular lumens was visualized using fluorescence microscopy.

CYP1A2 [6] = assay: CYP1A2 induction response to prototypical inducer, enzyme activity, HepatoCells; conditions: human, probe phenacetin 100 µM
Method: as §1

CYP3A4 mRNA [7] = assay: Concentration-dependent CYP3A4 mRNA induction in HepatoCells; conditions: for Emax / EC50: CYP3A4 mRNA fold increase, NI = no induction observed at tested concentration; for Emax: 3 consecutive days treatment, quinidine: only observed maximum fold induction; for RIS Based on mRNA: RIS = (Emax × Cmax,ub)/(EC50 + Cmax,ub); for EC50: human, nominal concentrations; for RIS Based on mRNA, Mean: mean of lots 2B, 3A, 3B; for RIS values based on CYP3A4 mRNA level (range stated for group of compounds): range over named compounds and three lots
Method: as §1, §2

CYP1A2 [8] = assay: CYP1A2 induction response to prototypical inducer, enzyme activity, primary human hepatocytes; conditions: cryopreserved primary human hepatocytes, probe phenacetin 100 µM
[9] = Solubility at test concentrations in induction assay; assay type: physicochemical; conditions: at 33 μM and 100 μM
Method: Only curve fitting with correlation coefficient (R^2) > 0.85 is accepted. At high concentrations for some compounds, if toxicity or insolubility becomes obvious, such data are excluded from curve fitting. Following the same approach as described by [Zhang et al. (2014)] and [Fahmi and Ripp (2010)], for data sets that show no apparent plateau, the observed maximum fold increase is accepted as Emax to avoid extrapolating too much above the experimental values and EC50 is calculated accordingly from the fitting curve.

[10] = clinical DDI, decrease in AUC of victim drug (midazolam or nonmidazolam), ref Zhang et al., 2014
[11] = Lot 2B HepatoCells, RIS calibration curve
[12] = Lot 3A HepatoCells, RIS calibration curve
[13] = Lot 3B HepatoCells, RIS calibration curve

T1 sequence (Q92887 whole entry): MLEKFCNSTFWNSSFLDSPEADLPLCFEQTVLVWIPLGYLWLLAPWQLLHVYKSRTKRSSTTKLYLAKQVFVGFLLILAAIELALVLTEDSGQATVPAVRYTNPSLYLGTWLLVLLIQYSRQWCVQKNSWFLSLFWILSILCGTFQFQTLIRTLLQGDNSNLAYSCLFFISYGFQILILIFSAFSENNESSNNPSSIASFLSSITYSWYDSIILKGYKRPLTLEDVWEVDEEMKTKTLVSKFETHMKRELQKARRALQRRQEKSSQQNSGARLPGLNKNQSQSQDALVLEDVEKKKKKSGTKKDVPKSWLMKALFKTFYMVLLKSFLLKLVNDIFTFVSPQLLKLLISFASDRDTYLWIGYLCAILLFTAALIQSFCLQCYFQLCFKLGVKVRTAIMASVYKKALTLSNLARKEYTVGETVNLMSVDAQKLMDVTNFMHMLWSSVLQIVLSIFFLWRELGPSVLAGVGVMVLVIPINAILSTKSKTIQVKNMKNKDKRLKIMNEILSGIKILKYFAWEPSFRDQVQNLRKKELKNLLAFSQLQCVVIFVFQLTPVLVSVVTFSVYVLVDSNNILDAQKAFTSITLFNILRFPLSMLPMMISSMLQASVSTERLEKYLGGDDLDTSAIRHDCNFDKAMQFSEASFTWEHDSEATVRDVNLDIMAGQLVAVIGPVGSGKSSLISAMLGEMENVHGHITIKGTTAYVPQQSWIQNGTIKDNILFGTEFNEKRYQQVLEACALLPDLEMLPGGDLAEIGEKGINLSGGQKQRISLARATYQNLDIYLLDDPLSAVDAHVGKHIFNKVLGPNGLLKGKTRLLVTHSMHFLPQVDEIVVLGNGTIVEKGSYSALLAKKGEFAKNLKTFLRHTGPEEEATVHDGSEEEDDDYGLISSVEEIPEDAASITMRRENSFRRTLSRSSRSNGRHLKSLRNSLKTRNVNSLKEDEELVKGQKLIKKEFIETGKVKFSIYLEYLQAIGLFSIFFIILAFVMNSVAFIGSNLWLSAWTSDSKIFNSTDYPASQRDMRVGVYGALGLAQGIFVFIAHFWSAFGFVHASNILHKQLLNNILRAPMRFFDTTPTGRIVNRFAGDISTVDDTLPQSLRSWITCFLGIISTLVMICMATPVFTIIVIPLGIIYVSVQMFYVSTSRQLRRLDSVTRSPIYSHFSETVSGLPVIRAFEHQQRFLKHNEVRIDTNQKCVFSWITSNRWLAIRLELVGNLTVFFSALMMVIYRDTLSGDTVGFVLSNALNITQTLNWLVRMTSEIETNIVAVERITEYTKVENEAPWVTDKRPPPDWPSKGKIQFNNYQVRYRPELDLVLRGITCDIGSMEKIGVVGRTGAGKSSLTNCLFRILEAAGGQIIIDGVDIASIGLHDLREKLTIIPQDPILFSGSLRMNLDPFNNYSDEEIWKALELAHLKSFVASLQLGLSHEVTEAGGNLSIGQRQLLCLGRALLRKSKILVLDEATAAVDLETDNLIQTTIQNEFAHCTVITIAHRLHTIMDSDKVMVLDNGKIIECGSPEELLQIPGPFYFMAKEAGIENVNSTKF

| SMILES | RIS Based on Enzyme Activity (CYP3A4 [1]; Lot 2B) | RIS Based on Enzyme Activity (CYP3A4 [1]; Lot 3A) | RIS Based on Enzyme Activity (CYP3A4 [1]; Lot 3B) | RIS Based on Enzyme Activity, Mean (CYP3A4 [1]; mean of lots 2B, 3A, 3B) | Observed % AUC Change (CYP3A4 [2]; [10]) | Predicted % AUC Change Based on Activity (CYP3A4 [3]; [11]) | Predicted % AUC Change Based on mRNA (CYP3A4 [3]; [11]) | Predicted % AUC Change Based on Activity (CYP3A4 [3]; [12]) | Predicted % AUC Change Based on mRNA (CYP3A4 [3]; [12]) | Predicted % AUC Change Based on Activity (CYP3A4 [3]; [13]) | Predicted % AUC Change Based on mRNA (CYP3A4 [3]; [13]) | Emax (CYP3A4 mRNA [7]; Lot 2B HepatoCells) | RIS Based on mRNA (CYP3A4 mRNA [7]; Lot 2B) | Emax (CYP3A4 mRNA [7]; Lot 3A HepatoCells) | RIS Based on mRNA (CYP3A4 mRNA [7]; Lot 3A) | Emax (CYP3A4 mRNA [7]; Lot 3B HepatoCells) | RIS Based on mRNA (CYP3A4 mRNA [7]; Lot 3B) | EC50 (CYP3A4 mRNA [7]; EC50, Lot 2B HepatoCells) | EC50 (CYP3A4 mRNA [7]; EC50, Lot 3A HepatoCells) | EC50 (CYP3A4 mRNA [7]; EC50, Lot 3B HepatoCells) | other results |
| --- | --- | --- | --- | --- | --- | --- | --- | --- | --- | --- | --- | --- | --- | --- | --- | --- | --- | --- | --- | --- | --- |
| Clc1ccccc1C(c1ccccc1)(c1ccccc1)n1ccnc1 [Clotrimazole] | – | – | – | – | – | – | – | – | – | – | – | – | – | – | – | – | – | – | – | – | CYP3A4 enzyme activity induction response (in words) (CYP3A4 [1]): did not increase; Observed % AUC Change (CYP3A4 [2]; human, in vivo): 9.7%; Predicted % AUC Change Based on Activity (CYP3A4 [3]): 0%; Predicted % AUC Change Based on mRNA (CYP3A4 [3]): 0.00%; Emax, CYP3A4 enzyme activity (CYP3A4 [4]): 3.1- to 3.3 fold; CYP3A4 mRNA expression induction response (in words) (CYP3A4 mRNA [5]): induced an increase; RIS Based on mRNA, Mean (CYP3A4 mRNA [5]): 0.0044 |
| CN(C)C(=O)CCSC(SCCC(=O)O)c1cccc(/C=C/c2ccc3ccc(Cl)cc3n2)c1 (stereo not shown) [MK571] | – | – | – | – | – | – | – | – | – | – | – | – | – | – | – | – | – | – | – | – | effect on CDFDA staining of bile canaliculi (MRP2): inhibited the specific CDFDA staining of bile canaliculi |
| COc1ccc2[nH]c([S+]([O-])Cc3ncc(C)c(OC)c3C)nc2c1 (stereo not shown) [Omeprazole] | 0.015 | 0.009 | 0.007 | 0.0103 | −25% | 0.11% | 1.7% | 0.002% | 0.14% | 0.017% | 0.35% | 24 Fold | 0.069 | 45 Fold | 0.073 | 27 Fold | 0.079 | 13 µM | 23 µM | 13 µM | fold induction at 72 h, 50 µM (CYP1A2 [6]): 32.4; RIS values based on enzyme activity (range stated for group of compounds) (CYP3A4 [1]): 0.0004–0.09; Predicted AUC change using HepatoCells (range of lots) (CYP3A4 [3]): 0.1–1.7%; RIS Based on mRNA, Mean (CYP3A4 mRNA [7]): 0.074; RIS values based on CYP3A4 mRNA level (range stated for group of compounds) (CYP3A4 mRNA [7]): 0.0012–0.16; fold induction at 72 h, 50 µM (CYP1A2 [8]): 28.7 |
| O=C1NC(=O)C(c2ccccc2)(c2ccccc2)N1 [Phenytoin] | 1.8 | 2.3 | 2.4 | 2.2 | 94% | 96% | 98% | 96% | 98% | 97% | 95% | 23 Fold | 7.5 | 38 Fold | 12.1 | 35 Fold | 8.5 | 15 µM | 16 µM | 23 µM | RIS values based on enzyme activity (range stated for group of compounds) (CYP3A4 [1]): 0.7–24; Predicted AUC change using HepatoCells (range of lots) (CYP3A4 [3]): 95–98%; RIS Based on mRNA, Mean (CYP3A4 mRNA [7]): 9.4; RIS values based on CYP3A4 mRNA level (range stated for group of compounds) (CYP3A4 mRNA [7]): 0.8–25 |
| CCc1ccc(CCOc2ccc(CC3SC(=O)NC3=O)cc2)nc1 (stereo not shown) [Pioglitazone] | 0.12 | 0.20 | 0.28 | 0.2 | 26% | 17% | 36% | 23% | 35% | 34% | 29% | 33 Fold | 0.28 | 31 Fold | 0.37 | 15 Fold | 0.21 | 3.3 µM | 2.3 µM | 2 µM | Predicted AUC change using enzyme activity data (range of lots) (CYP3A4 [3]; three lots of HepatoCells): 17–34%; Predicted AUC change using mRNA data (range of lots) (CYP3A4 [3]; three lots of HepatoCells): 29–36%; RIS Based on mRNA, Mean (CYP3A4 mRNA [7]): 0.29; solubility [9]: insoluble |
| C=C[C@H]1C[N@@]2CC[C@H]1C[C@@H]2[C@@H](O)c1ccnc2ccc(OC)cc12 [Quinidine] | – | – | – | – | – | – | – | – | – | – | – | – | – | – | – | – | – | – | – | – | CYP3A4 enzyme activity induction over solvent vehicle control (CYP3A4 [1]): one- to twofold increase; CYP3A4 enzyme activity induction response (in words) (CYP3A4 [1]): did not cause a concentration-dependent increase; CYP3A4 mRNA induction over solvent vehicle control (CYP3A4 mRNA [5]): one- to twofold increase |
| CN(C/C=C/C#CC(C)(C)C)Cc1cccc2ccccc12 [Terbinafine] | – | – | – | – | – | – | – | – | – | – | – | 20 Fold | – | 24 Fold | – | 21 Fold | – | – | – | – | RIS Based on Enzyme Activity, Mean (CYP3A4 [1]; human): 0.2; Observed % AUC Change (CYP3A4 [2]; human, in vivo): 25%; Predicted % AUC Change Based on Activity (CYP3A4 [3]): 29% and 15%; Predicted AUC change using enzyme activity data (range of lots) (CYP3A4 [3]): 15–29%; Predicted AUC change using mRNA data (range of lots) (CYP3A4 [3]): 8–19%; RIS Based on mRNA, Mean (CYP3A4 mRNA [5]): 0.19 |
